{"source": "patent US10849912B2", "about": "“Method of sensitizing cancer cells to the cytotoxic effects of apoptosis inducing ligands in cancer treatment” (The United States of America, as represented by the …, priority 2016, dated 2020)", "key": {"[1]": {"tested_on": "melanoma cells (M14, SK-MEL-28, UACC-62, SK-MEL-5, MALME-3M)", "assay": "Sensitization of melanoma cells to TRAIL apoptosis, percentage decrease in cell number", "assay_type": "cell-based", "details": "for percentage decrease in cell number, agent alone: absence of TRAIL, FIGS. 18B-22B, 18C-22C", "text": "(§1) This example provides a comparison of the activities of compound 1 with the Smac mimetics birinapant, GDC-0152, and LCL-161 and with the Bcl-2 antagonists ABT-199 and ABT-737 for sensitization of renal carcinoma and melanoma cells to TRAIL apoptosis.\n(§2) The results for compound 1 are shown graphically in FIGS. 13A-22A. The results for Smac mimetics birinapant, GDC-0152, and LCL-161 are shown graphically in FIGS. 13B-22B. The results for Bcl-2 antagonists ART-199 and ABT-737 are shown graphically in FIGS. 13C-22C, FIGS. 13A-22A, 13B-22B, and 13C-22C depict the percentage decrease in cell number as a function of concentration. For FIGS. 13B-22B and 13C-22C, the dose response curve was obtained for one of the listed agents."}, "[2]": {"tested_on": "renal carcinoma cell lines (ACHN, SN12C, Caki-1, TK-10, UO-31)", "assay": "Sensitization of renal carcinoma cells to TRAIL apoptosis, percentage decrease in cell number", "assay_type": "cell-based", "details": "for percentage decrease in cell number, agent alone: absence of TRAIL, FIGS. 13B-17B, 13C-17C", "text": "as §1, §2"}, "SK MEL28 melanoma cells [3]": {"tested_on": "SK MEL28 melanoma cells", "assay": "Effect of bafilomycin on sensitization to poly IC, MTS cell viability", "assay_type": "cell-based, human", "details": "50 nM bafilomycin A, poly IC 36-48 h", "method": "(§3) For all experiments, cells (ACHN (renal carcinoma), M14, SK MEL28, and Malme (human melanoma lines)) were plated at a concentration of 5000 cells/well overnight. All treatments were carried out the following day.\nTo inhibit TLR 3 signaling, cells were treated with compound 9, compound 1, or compound 10 for 4 hours followed by addition of 50 nM of Balfilomycin A or DMSO for 2.5 h. Subsequently poly IC was added for 36-48 h and cell viability was assessed by addition of MTS during the last four hours of Poly IC treatment. The results for compounds 9, 1, and 10 are depicted in FIG. 6."}, "SKMEL28 melanoma cells": {"tested_on": "SKMEL28 melanoma cells", "assay": "Effect of pan caspase inhibitor ZVAD-FMK on growth inhibition by poly IC plus compound, MTS", "assay_type": "cell-based, human", "details": "compound 1000 nM for 16-18 h, ZVAD-FMK 40 μM for 2 h, poly IC 20-24 h", "method": "To assess the effects of pan caspase inhibitor ZVAD, SKMEL28 melanoma cells were treated with compounds 9 and 1 for 16-18 h. Subsequently, ZVAD-FMK (40 μM) or DMSO was added for 2 h followed by 20-24 h incubation in the presence or absence of poly IC. Cell viability was assessed by addition of MTS during the last four hours of poly IC treatment.\nThe growth inhibition as a function of poly IC concentration at 1000 nM concentrations of compounds 9 and 1 was determined, and the results shown in FIGS. 10A and 10B, respectively."}, "caspase-8": {"tested_on": "caspase-8", "assay": "Western blot of caspase-8 activation in ACHN cells treated with compound, with or without poly IC", "assay_type": "cell-based", "details": "compound 125 nM-1 μM overnight, then 10 ug/ml polyIC for 3 hours", "method": "(§4) ACHN cells were grown in RPMI (RPMI, 5% FBS, Pen-strep, NEAA, HEPES, Glutamax, Sodium Pyruvate, 2ME), 2×10^6 cells/well were plated in 6 well plates and grown overnight, on day 2 compound 9 or compound 1 were added, including duplicate plates and incubated overnight. On day 3 either media or 10 ug/ml polyIC was added for 3 hours. Cells were lysed in RIPA buffer (30 mM Tris-HCL pH 7.5, 150 mM NaCl, 10% glycerol, 1% Triton X-100) supplemented with Pierce Halt Protease and Phosphatase Inhibitor and 40 μM ZVAD, the RIPA buffer also contained Pierce Universal Nuclease. Protein concentrations were measured using the Pierce BCA Protein Assay (Thermo Fisher Scientific, Waltham, Mass.), Twenty micrograms of each sample was run on a Bolt Gel (Thermo Fisher Scientific), transferred to a PVDF membrane using the BioRad Trans-Blot Turbo Transfer System (BioRad, Hercules, Calif.), briefly placed in Methanol, dried, rehydrated, and blocked in Pierce Start Block buffer. […]"}, "human M14 melanoma": {"tested_on": "human M14 melanoma", "assay": "Xenograft model of human M14 melanoma, intratumoral compound", "assay_type": "in vivo, athymic nude mice", "details": "20 mg/Kg, once per week for four weeks", "method": "Female nude athymic mice were obtained from Charles River Laboratory. All mice were kept under specific pathogen-free conditions with water and food given ad libitum. All experiments with mice were performed in compliance with the principles and procedures outlined in the National Institutes of Health Guide for the Care and Use of Animals and were approved by the National Cancer Institute at Frederick Animal Care and Use Committee.\nFor in vivo treatments with compounds 9 and 1, compound 9 and compound 1 stock solutions (0.5M and 0.25M in DMSO respectively) were diluted in 33% Trappsol and DMSO at a ratio of 7:1 and administered intratumorally or at the base of tumor in a volume of 20 ul at a dose of 20 mg/Kg of body weight. […]\nMice (nude athymic, female, 6-8-week old, n=5), were implanted subcutaneously with 0.2 ml of M14 melanoma cells (1×10^6/mouse) into the right flank. […] The appearance and growth of tumors were monitored twice every week. The greatest longitudinal diameter (length) and the greatest transverse diameter (width) of a palpable tumor were measured to the nearest 0.1 mm using a caliper. Tumor volume (mm^3) was calculated by the ellipsoidal formula Tumor volume=[…]. […]"}, "cFLIP": {"tested_on": "cFLIP", "assay": "Western blot of cFLIP levels in ACHN cells treated with compound, with or without poly IC", "assay_type": "cell-based", "details": "compound 125 nM-1 μM overnight, FIGS. 5A and 5B", "method": "as §4"}, "SK MEL28 melanoma cells [4]": {"tested_on": "SK MEL28 melanoma cells", "assay": "Titration of sensitization to TRAIL, MTS cell viability", "assay_type": "cell-based, human", "details": "compound 0.97 nM-2000 nM for 3 or 24 h, then 10 ng/ml TRAIL for 24 h", "method": "as §3\n(§5) For titration experiments in the presence or absence of TRAIL, cells were treated with various doses of compound 8 (0.97 nM-2000 nM) for 3 or 24 h followed by 10 ng/ml of recombinant TRAIL for 24 h. Cell viability was assessed by addition of MTS during the last four hours of TRAIL treatment. The results with SK MEL28, M14, and Malme cells are depicted in FIGS. 7A-7C, respectively."}, "M14 melanoma cells": {"tested_on": "M14 melanoma cells", "assay": "Titration of sensitization to TRAIL, MTS cell viability", "assay_type": "cell-based, human", "details": "compound 0.97 nM-2000 nM for 3 or 24 h, then 10 ng/ml TRAIL for 24 h", "method": "as §3, §5\n(§6) Titration experiments were conducted as described in Example 5."}, "Malme 3M melanoma cells": {"tested_on": "Malme 3M melanoma cells", "assay": "Titration of sensitization to TRAIL, MTS cell viability", "assay_type": "cell-based, human", "details": "Malme (Malme 3M); compound 0.97 nM-2000 nM for 3 or 24 h, then 10 ng/ml TRAIL for 24 h", "method": "as §3, §5, §6"}}, "note": "“Also recorded” adds a separate entry of the source."}
{"compound": "CC1=C(C)C(=O)OC([C@](C)(O)[C@]2(O)CC[C@@]3(O)C4CC=C5C(=O)C=CC(=O)[C@]5(C)C4CC[C@]23C)C1", "note": "(stereo partly shown)", "values": [{"measurement": "melting point", "value": "176 to 178", "unit": "°C"}]}
{"compound": "CC1(C)CCC(CN2CCN(c3ccc(C(=O)NS(=O)(=O)c4ccc(NCC5CCOCC5)c([N+](=O)[O-])c4)c(Oc4cnc5[nH]ccc5c4)c3)CC2)=C(c2ccc(Cl)cc2)C1", "note": "[ABT-199]", "values": [{"measurement": "percentage decrease in cell number, agent alone", "setting": "[1]", "value": "little to no response due to concentration"}, {"measurement": "percentage decrease in cell number, agent alone", "setting": "[2]", "value": "little to no response due to concentration"}]}
{"compound": "CN(C)CC[C@H](CSc1ccccc1)Nc1ccc(S(=O)(=O)NC(=O)c2ccc(N3CCN(Cc4ccccc4-c4ccc(Cl)cc4)CC3)cc2)cc1[N+](=O)[O-]", "note": "[ABT-737]", "values": [{"measurement": "percentage decrease in cell number, agent alone", "setting": "[1]", "value": "little to no response due to concentration"}, {"measurement": "percentage decrease in cell number, agent alone", "setting": "[2]", "value": "little to no response due to concentration"}]}
{"compound": "CN[C@@H](C)C(=O)N[C@H](C(=O)N1CCC[C@H]1C(=O)Nc1snnc1-c1ccccc1)C1CCCCC1", "note": "[GDC-0152]", "values": [{"measurement": "percentage decrease in cell number, agent alone", "setting": "[1]", "value": "little to no response due to concentration"}, {"measurement": "percentage decrease in cell number, agent alone", "setting": "[2]", "value": "little to no response due to concentration"}]}
{"compound": "CN[C@@H](C)C(=O)N[C@H](C(=O)N1CCC[C@H]1c1nc(C(=O)c2ccc(F)cc2)cs1)C1CCCCC1", "note": "[LCL-161]", "values": [{"measurement": "percentage decrease in cell number, agent alone", "setting": "[1]", "value": "little to no response due to concentration"}, {"measurement": "percentage decrease in cell number, agent alone", "setting": "[2]", "value": "little to no response due to concentration"}]}
{"compound": "CC[C@H](NC(=O)[C@H](C)NC)C(=O)N1C[C@@H](O)C[C@H]1Cc1c(-c2[nH]c3cc(F)ccc3c2C[C@@H]2C[C@H](O)CN2C(=O)[C@H](CC)NC(=O)[C@H](C)NC)[nH]c2cc(F)ccc12", "note": "[birinapant]", "values": [{"measurement": "percentage decrease in cell number, agent alone", "setting": "[1]", "value": "little to no response due to concentration"}, {"measurement": "percentage decrease in cell number, agent alone", "setting": "[2]", "value": "little to no response due to concentration"}]}
{"compound": "CC(=O)OC[C@]12CC[C@H]3[C@@H](C[C@H]4O[C@]45CC=CC(=O)[C@]35C)[C@]1(O)CC[C@@]2(O)[C@@](C)(O)[C@H]1CC(C)=C(C)C(=O)O1", "note": "[compound 1, physachenolide C]", "values": [{"measurement": "apoptosis by the compound and poly IC combination after incubation with bafilomycin-A1", "setting": "SK MEL28 melanoma cells [3]", "value": "significantly reduced subsequent apoptosis"}, {"measurement": "sensitization to TRAIL apoptosis", "setting": "[1]; 25 ng/mL TRAIL", "value": "significant activity"}, {"measurement": "reduction in cell number by poly IC in combination with compound, in presence of ZVAD-FMK", "setting": "SKMEL28 melanoma cells", "value": "completely blocked"}, {"measurement": "promoting caspase-8 activation in response to subsequent exposure to poly IC", "setting": "caspase-8", "value": "more active than compound 9"}, {"measurement": "observation at the tumor site accompanying decrease in tumor burden", "setting": "human M14 melanoma", "value": "massive tumor destruction and scabbing at the tumor site"}, {"measurement": "tumor growth and volume (tumor burden)", "setting": "human M14 melanoma; versus vehicle control, ****P<0.0001, 20 mg/kg", "value": "significant reduction in tumor growth and volume"}, {"measurement": "reducing the levels of cFLIPL+S", "setting": "cFLIP", "value": "more active than compound 9"}, {"measurement": "sensitization to TRAIL apoptosis", "setting": "[2]; 50 ng/mL TRAIL", "value": "superior sensitizer"}]}
{"compound": "biotinylated derivative of 4β-hydroxywithanolide E [compound 8]", "values": [{"measurement": "sensitization to apoptosis by TRAIL", "setting": "SK MEL28 melanoma cells [4]", "value": "sensitized"}, {"measurement": "sensitization to apoptosis by TRAIL", "setting": "M14 melanoma cells", "value": "sensitized; also recorded: more potent than compound 1 at lower concentrations"}, {"measurement": "sensitization to apoptosis by TRAIL", "setting": "Malme 3M melanoma cells", "value": "sensitized; also recorded: more potent than compound 1 at lower concentrations"}]}
